Key:
Human LBAT = target: T1, Human LBAT (Homo sapiens, UniProt Q14973); test: LBAT (h/m) assay, human LBAT-overexpressing cells, 3H-taurocholic acid uptake; type: cell-based; conditions: read-out: hLBAT IC50
T1 construct: expressed in transfected cells; cultured under Geneticin selection
T1 sequence (Q14973 1-349): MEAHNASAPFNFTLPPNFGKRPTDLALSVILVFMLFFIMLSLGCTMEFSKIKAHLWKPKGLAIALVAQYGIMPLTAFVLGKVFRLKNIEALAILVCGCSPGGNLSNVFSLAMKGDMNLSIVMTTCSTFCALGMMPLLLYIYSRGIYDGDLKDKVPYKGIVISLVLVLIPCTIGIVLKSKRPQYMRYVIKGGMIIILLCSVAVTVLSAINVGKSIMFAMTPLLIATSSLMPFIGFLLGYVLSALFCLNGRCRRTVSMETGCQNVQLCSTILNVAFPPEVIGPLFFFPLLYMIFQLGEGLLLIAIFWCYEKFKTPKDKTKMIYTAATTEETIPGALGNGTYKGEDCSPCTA
Experimental: LBAT (h/m) Assay Protocol
20,000 cells (Human or Mouse LBAT-overexpressing cells) were seeded in 96-wells plate (Corning CLS3809) in 100 μL MEM-alpha medium (Gibco 12571-063) supplemented with 10% FBS (Gibco 10438026) containing Geneticin (Gibco 10131-027) (1 mg/mL) and incubated at 37° C. in 5% CO2 for 24 hours. After incubation, media was decanted from the wells and cells were washed two times with 300 μL of basal MEM-alpha medium (FBS-free). After decanting basal MEM-alpha medium each time, plates were tapped against paper towel to ensure maximum removal of residual media. For human LBAT, incubation mix was prepared by adding test inhibitor dilutions (3-fold serial dilution in DMSO (Sigma D2650), 10 points) in MEM-alpha (without FBS) containing 0.3 μM 3H-taurocholic acid (ARC ART-1368) and 7.5 μM cold taurocholic acid (Sigma T4009) (maintaining 0.2% final DMSO concentration). For mouse LBAT, incubation mix was prepared by adding test inhibitor dilutions (3-fold serial dilution in DMSO, 10 points) in MEM-alpha (without FBS) containing 0.3 μM 3H-taurocholic acid and 25 μM cold taurocholic acid maintaining 0.2% final DMSO concentration). 50 μL of incubation mix containing test inhibitors was then added to the wells (in duplicate) and the plates were incubated for 20 minutes in a CO2 incubator at 37° C. After incubation, the reaction was stopped by keeping the plates on ice water mix for 2-3 minutes and then the incubation mix was aspirated completely from the wells. The wells were washed two times with 250 μL of chilled unlabeled 1 mM taurocholic acid dissolved in HEPES (Gibco 15630080)-buffered (10 mM) HBSS (Gibco 14175079) (pH 7.4). The plates were tapped against a paper towel after every wash to ensure maximum removal of blocking buffer.
100 μL of MicroScint-20 (PerkinElmer 6013621) was added to the wells and kept overnight at room temperature before reading the plates in TopCount NXT™ Microplate Scintillation and Luminescence Counter from PerkinElmer under 3H Test protocol (set at 120 seconds reading time per well, with normal plate orientation).
Preparation of Test Compound Dilutions
All test compounds were provided in powder form at room temperature. 10 mM DMSO stocks of the test compounds were prepared, aliquoted and stored at −20° C. From the 10 mM DMSO stock of the compounds, a 3-fold serial dilution in DMSO was prepared to get a total of 10 dilutions of the test compounds. 0.5 μL of this dilution in DMSO was added to 250 μL of FBS-free basal media containing 3H-taurocholic acid and cold taurocholic acid to prepare the incubation mixture.

[1] = Bidirectional permeability assay (Caco-2 cells); type: in vitro ADME; conditions: human, pH 7.4, Caco-2, absorptive direction (A2B)
Experimental: Bidirectional Permeability Assay (Caco-2 Cells)
Caco-2 cells (Evotec) were seeded at a density of 70,000 cells/well in Millicell® 24-well cell culture insert plates and maintained in an incubator (37° C., 5% CO2, 95% RH) for 21 days with media change on alternate days.
Stock solutions (10 mM) of the test compounds, atenolol (low permeability marker), propranolol (high permeability marker) and digoxin (substrate for P-gp transport pathway) were prepared in dimethylsulfoxide (DMSO). An intermediate stock solution (1 mM) was prepared by diluting 10 μL of 10 mM master stock solution with 90 μL of neat DMSO. A working stock solution (10 μM) was prepared by diluting 50 μL of 1 mM with 4950 μL of FaSSIF buffer. […]
On the day of assay, Caco-2 monolayers were washed twice with transport buffer (HBSS, pH 7.4) and pre-incubated for 30 min (37° C., 5% CO2, 95% RH) in an incubator. The electrical resistance of the monolayers was measured with a Millicell®-ERS system. […]
Samples were vortexed and centrifuged at 4000 rpm for 10 minutes. […] The concentration of compounds in the samples was analyzed by liquid chromatography tandem mass spectrometry (LC-MS/MS) method using discovery grade bio-analytical method, as applicable.
The mean apparent permeability (Papp, ×10^−6 cm/sec) of the test compounds, atenolol, propranolol and digoxin were calculated as follows: […]

IC50 (Human LBAT): 1640 nM | Papp A→B at 120 min, 10 µM [1]: 2.2 ×10⁻⁶ cm/s
Compound: CCCCC1(C)CN(c2ccc(F)cc2)c2cc(SC)c(OCC(O)C(=O)O)cc2S(=O)(=O)C1 (single isomer, unassigned) [1, diastereomer 1]

— patent US11377429B2, “Benzothia(di)azepine compounds and their use as bile acid modulators” (Albireo AB, priority 2020, dated 2022)
